In series [1] the target is T1, hCAS (Homo sapiens, UniProt P55060).
T1 construct: endogenous in cells; host or cells: MiaPaCa-2 human pancreatic cancer cells
T1 sequence (P55060 1-971): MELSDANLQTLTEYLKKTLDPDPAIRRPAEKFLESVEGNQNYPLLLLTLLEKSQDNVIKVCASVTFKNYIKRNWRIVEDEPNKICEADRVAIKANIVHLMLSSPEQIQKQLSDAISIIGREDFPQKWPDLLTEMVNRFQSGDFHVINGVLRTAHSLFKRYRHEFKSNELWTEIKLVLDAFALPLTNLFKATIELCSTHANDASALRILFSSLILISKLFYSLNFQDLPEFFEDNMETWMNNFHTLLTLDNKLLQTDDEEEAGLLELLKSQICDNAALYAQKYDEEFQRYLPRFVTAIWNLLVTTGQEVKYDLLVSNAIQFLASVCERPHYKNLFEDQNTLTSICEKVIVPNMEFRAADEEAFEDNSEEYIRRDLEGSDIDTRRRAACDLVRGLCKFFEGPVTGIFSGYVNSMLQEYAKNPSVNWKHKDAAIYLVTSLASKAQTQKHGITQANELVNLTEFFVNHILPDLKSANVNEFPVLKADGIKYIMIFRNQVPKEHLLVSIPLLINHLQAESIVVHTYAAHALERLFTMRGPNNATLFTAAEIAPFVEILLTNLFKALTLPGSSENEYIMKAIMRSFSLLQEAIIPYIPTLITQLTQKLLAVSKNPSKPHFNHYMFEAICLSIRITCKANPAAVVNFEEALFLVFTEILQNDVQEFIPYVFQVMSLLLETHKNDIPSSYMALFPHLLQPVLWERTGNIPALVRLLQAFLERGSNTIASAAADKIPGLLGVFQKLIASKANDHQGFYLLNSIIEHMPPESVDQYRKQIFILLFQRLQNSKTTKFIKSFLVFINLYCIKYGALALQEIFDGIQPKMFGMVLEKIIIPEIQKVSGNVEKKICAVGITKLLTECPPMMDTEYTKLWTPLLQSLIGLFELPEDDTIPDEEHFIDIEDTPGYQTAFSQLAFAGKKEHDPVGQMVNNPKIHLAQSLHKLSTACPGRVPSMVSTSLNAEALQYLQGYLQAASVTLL
The experiment in a line: Competitive affinity-isolation of hCAS in MiaPaCa-2 cell lysate. It counts as binding. The following applies: excess free compound. Here is the method: This experiment used a synthetic biotin-δ-tocotrienol conjugate (shown below to inhibit growth activity of cultured MiaPaca-2 human pancreatic cancer cells) to confirm affinity-isolation of hCAS. To confirm that δ-T3 binds to hCAS in intact cells, biotinylated δ-T3 (B-δ-T3) was prepared by chemically coupling the —OH group of δ-T3 to the —COOH of biotin using a PEG-iodoactamide linker (FIG. 18). […] Affinity-isolation of hCAS was inhibited in the presence of free δ-tocotrienol but not with free δ-tocopherol.

A further series concerns SW-620. Description: Apoptosis induction in SW-620. It counts as cell-based, human.
In a further series the test system is human CCSCs. Description: Orthotopic (cecum) model of luciferase expressing human CCSCs in NOD-SCID mice. It counts as in vivo. Here is the method:
FIGS. 8A, 8B, 8C, and 8D show growth of cecal tumor volume (FIGS. 8A & 8B) and liver metastasis score (FIGS. 8C & 8D) in orthotopic model of CCSCs after treatment with vehicle, aspirin, d-T3, and aspirin+d-T3.
In vivo model of human CCSC were developed by implanting the stably transfected luciferase expressing CCSCs in the cecum of NOD-SCID mice. In this model, tumor growth, metastasis, and survival are monitored twice weekly by IP injection of luciferin (150 mg/kg body weight) and imaged using the IVIS 200 Bioluminescence imaging system. […] These findings strongly indicate that d-T3 targets CCSCs and enhances the ability of aspirin to target these cells.

Series [2] has as its system colon cancer stem cells (CCSC). Description: d-T3 IC50 in colon cancer stem cells. It counts as cell-based, human. The following applies: 5 days treatment, daily fresh media change.
A further series relates to CCSCs. The experiment in a line: miRNA profiles in CCSCs. The series is classed as cell-based, human. The following applies: 24-hour treatment; aspirin 5 mM, d-T3 10 μM. An excerpt: Given the results, and without intending to be bound by any theory, it appears that the induction of apoptosis can be one mechanism by which d-T3 prevents CRC and augments CRC prevention activity. BID knockout can diminish this effect. The biorepository as well as materials generated from studies can be used to explore other mechanisms of d-T3 action such as anti-inflammatory, mediation of the immune system, anti-angiogenesis, and alterations in metabolism. To this end, miRNA profiles were conducted that are altered with d-T3, aspirin, and d-T3 with aspirin treatment in CCSCs. To discover early miRNAs that are likely to influence activity, these cells were deliberately treated with doses of these agents at a duration when there were no phenotypic changes of apoptosis.

A further series relates to MiaPaCa-2 cell. Description: MiaPaCa-2 cell viability at increasing concentrations. The series is classed as cell-based, human.
The test system of another series is HPNE cells. The experiment in a line: Anchorage-independent growth / colony formation of HPNE cells over-expressing hCAS. It counts as cell-based. To be noted: d-T3 concentration escalation.
Series [3] has as its target T1, hCAS. Description: hCAS protein levels in MiaPaCa-2 cells. The series is classed as cell-based.
On the set-up of series [4]: species or system humans. To be noted: in vivo. The protocol:
Two phase I dose-escalation studies were performed determining safety, pharmacokinetics, and pharmacodynamics after twice daily oral administration of d-T3 for 14 consecutive days before surgery in patients with resectable pancreatic exocrine neoplasia and in healthy individuals. […] Based on experience from clinical trials and in animal studies, a dose of 400 mg twice daily was selected for the trial. It should be noted that d-T3 concentration is several times higher in fatty tissues such as the pancreas and colon.

The values below come from US20210205264A1, “USE OF DELTA-TOCOTRIENOL FOR TREATING CANCER” (H. LEE MOFFITT CANCER CENTER & RESEARCH INSTITUTE INC., priority 2018, published 2021).

pIC50: −log10 of the molar value.

The term pIC50 denotes the IC50 on a negative log10 scale, so that one unit is a factor of ten. In general, AUC refers to the area under the concentration-time curve, a measure of exposure. Read a low AUC as less exposure. As usually defined, the Cmax is the maximum level reached in the sampled fluid or tissue. With `CC(C)=CCC/C(C)=C/CC/C(C)=C/CC[C@]1(C)CCc2cc(O)cc(C)c2O1` [d-T3, δ-tocotrienol], the “affinity-isolation of hCAS / hCAS binding to biotin-T3 in presence of free competitor” value on hCAS [1] is “reduces hCAS binding”. For the same compound, on hCAS [1] (listed as δ-tocotrienol), the “affinity-isolation of hCAS / hCAS binding to biotin-T3 in presence of free competitor” value is listed as “inhibited”. The apoptosis entry in the series with SW-620 is “significantly induced apoptosis”. Also, the “growth of human CRC stem cells (cecal tumor)” value with human CCSCs is on record as “inhibited”. Besides, the “metastases of human CRC stem cells” value with human CCSCs (liver metastasis) is on record as “inhibited”. The pIC50 in series [2] is 5.30. Moreover, in the series with CCSCs, the “down-regulation of miRNAs compared with vehicle (number)” value stood at 9 miRNAs and the “up-regulation of miRNAs compared with vehicle (number)” value came to 7 miRNAs. In addition, the “cell killing at 100 μM concentration” value in the series with MiaPaCa-2 cell (100 μM) is listed as “killing almost all cells”. In addition, in the series with MiaPaCa-2 cell (increasing concentrations), the “effect on cell viability” value was “most potent”. Further, the “dose response on growth / colony formation” value in the series on HPNE cells was “potent dose-dependent effect”. Moreover, the “dose response on growth / colony formation” value with HPNE cells (listed as δ-T3) is “robust dose-response”. On hCAS [3], the “time at which decrease of hCAS levels starts” value came out at 6 h and the “time of maximum effect on hCAS levels” value fell in the range of 24 to 48 h. In addition, the hCAS levels result at hCAS [3] (d-T3 50 uM) is “decreases the hCAS levels”. For the same compound, in [4] (human, po), the AUC was at most 175 µM·h, the Cmax is at most 17 µM and the half-life result is “approximately 4 hours”. In addition, the dose-limiting toxicities entry in [4] is reported as “no dose-limiting toxicities”.
